Reference: patent US10077258B2, “Substituted pyrimidine compounds as phosphatidylinositol 3-kinase delta inhibitor and use thereof” (NANJING SANHOME PHARMACEUTICAL CO., LTD., priority 2015, dated 2018)

Columns and labels:
PI3Kδ = target: T1, PI3Kδ (Homo sapiens, UniProt O00329); test: In vitro kinase activity (LabChip EZ Reader mobility shift), PI3Kδ; type: biochemical; details: for IC50: kinase subtype PI3Kδ (p110δ/p85a)
T1 construct: purchased Millipore 14-604-K
Method: (§1) Compounds: the compounds prepared in above examples of the present invention, each of which was prepared to a concentration of 10 mM in DMSO and diluted to […], 100 nM, 10 nM, 1 nM, 0.1 nM, 0.01 nM successively.
(§2) Reagents: PI3Kα (p110α(p85a), purchased from Invitrogen, Cat.No. PV4788; PIK3Cδ (p110δ/p85a), purchased from Millipore, Cat.No. 14-604-K; PIK3Cβ (p110β), purchased from Millipore, Cat.No. 14-603-K; PIK3Cγ (pp110γ), purchased from Invitrogen, Cat.No. PR8641C; DMSO, purchased from Sigma; EDTA, purchased from Sigma; 1× kinase buffer (50 mM HEPES, pH 7.5, 0.0015% Brij-35, 10 mM MgCl2, 2 mM DTT), which was prepared before use; termination solution (100 mM HEPES, pH 7.5, 0.015% Brij-35, 0.2% Coating Reagent#3, 50 mM EDTA), which was prepared before use.
(§3) Instruments: LabChip EZ Reader purchased from Caliper, USA.
(§4) 2.1 10 μl solution of each concentration of each compound was placed into 96-well plate and 90 μl of 1× kinase buffer was added. DMSO control group and control group without kinase activity were set up, which all contained 10 μl DMSO and 90 μl of 1× kinase buffer. Each group was mixed well at room temperature for 10 min, and then 5 μl of each group was transferred to a 384-well plate.
(§5) 2.2 Kinases were dissolved in 1× kinase buffer to prepare a 2.5× kinase solution. 10 μl of 2.5× kinase solution was transferred to the 384-well plate containing compounds of different concentrations. 10 μl of 2.5× kinase solution was added to DMSO control group and 10 μl of 1× kinase buffer without kinase was added to control group without kinase activity. The plate was incubated at room temperature for 10 min.
(§6) 2.3 ATP and the polypeptide labeled with FAM were dissolved in 1× kinase buffer to prepare 2.5× substrate solution. Then 10 μl of 2.5× substrate solution was transferred to the 384-well plate and incubated at 28° C. for 1 h.
(§7) 2.4 25 μl of termination solution was added to each well to terminate the reaction.
(§8) 2.5 The plate was placed on the LabChip EZ Reader to read the data of conversion rate and inhibitory rate (1%) was calculated according to formula: I %=(Max−Com)/(Max−Min)×100, wherein Max was the conversion rate of DMSO control group, Min was the conversion rate of control group without kinase activity, Com was the conversion rate of compound treatment group. IC50 was fitted by XLfit processing of the data.

PI3Kα = target: T2, PI3Kα (Homo sapiens, UniProt P42336); test: In vitro kinase activity (LabChip EZ Reader mobility shift), PI3Kα; type: biochemical; details: kinase subtype PI3Kα (p110α/p85a)
T2 construct: purchased Invitrogen PV4788
T2 sequence (P42336 whole entry): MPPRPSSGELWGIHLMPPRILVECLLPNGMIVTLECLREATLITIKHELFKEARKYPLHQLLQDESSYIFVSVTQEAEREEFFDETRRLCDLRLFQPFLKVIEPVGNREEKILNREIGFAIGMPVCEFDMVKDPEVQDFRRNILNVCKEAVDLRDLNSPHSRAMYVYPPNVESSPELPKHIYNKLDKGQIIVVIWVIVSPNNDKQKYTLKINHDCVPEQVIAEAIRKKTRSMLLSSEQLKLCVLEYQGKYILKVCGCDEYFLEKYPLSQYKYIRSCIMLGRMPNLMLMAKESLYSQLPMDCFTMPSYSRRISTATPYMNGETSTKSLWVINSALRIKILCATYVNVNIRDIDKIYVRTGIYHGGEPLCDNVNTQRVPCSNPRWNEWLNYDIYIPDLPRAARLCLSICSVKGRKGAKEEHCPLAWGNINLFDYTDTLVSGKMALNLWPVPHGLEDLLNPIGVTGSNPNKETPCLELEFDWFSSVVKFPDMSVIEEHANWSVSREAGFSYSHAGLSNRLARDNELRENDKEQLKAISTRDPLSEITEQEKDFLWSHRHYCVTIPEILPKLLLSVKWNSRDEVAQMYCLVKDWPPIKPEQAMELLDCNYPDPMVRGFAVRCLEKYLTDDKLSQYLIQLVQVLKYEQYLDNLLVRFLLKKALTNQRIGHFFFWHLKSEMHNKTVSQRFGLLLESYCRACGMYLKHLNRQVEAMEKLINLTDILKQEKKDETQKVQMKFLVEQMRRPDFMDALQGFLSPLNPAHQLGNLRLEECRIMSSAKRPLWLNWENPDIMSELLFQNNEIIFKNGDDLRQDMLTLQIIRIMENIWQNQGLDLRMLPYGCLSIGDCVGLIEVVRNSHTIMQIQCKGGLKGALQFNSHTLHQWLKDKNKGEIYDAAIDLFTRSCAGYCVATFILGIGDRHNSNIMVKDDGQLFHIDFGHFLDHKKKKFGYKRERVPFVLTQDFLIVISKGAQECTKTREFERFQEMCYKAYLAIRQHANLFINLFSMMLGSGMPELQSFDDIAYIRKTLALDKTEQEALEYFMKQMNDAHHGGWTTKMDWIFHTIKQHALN
T2 sequence (P27986 whole entry partner): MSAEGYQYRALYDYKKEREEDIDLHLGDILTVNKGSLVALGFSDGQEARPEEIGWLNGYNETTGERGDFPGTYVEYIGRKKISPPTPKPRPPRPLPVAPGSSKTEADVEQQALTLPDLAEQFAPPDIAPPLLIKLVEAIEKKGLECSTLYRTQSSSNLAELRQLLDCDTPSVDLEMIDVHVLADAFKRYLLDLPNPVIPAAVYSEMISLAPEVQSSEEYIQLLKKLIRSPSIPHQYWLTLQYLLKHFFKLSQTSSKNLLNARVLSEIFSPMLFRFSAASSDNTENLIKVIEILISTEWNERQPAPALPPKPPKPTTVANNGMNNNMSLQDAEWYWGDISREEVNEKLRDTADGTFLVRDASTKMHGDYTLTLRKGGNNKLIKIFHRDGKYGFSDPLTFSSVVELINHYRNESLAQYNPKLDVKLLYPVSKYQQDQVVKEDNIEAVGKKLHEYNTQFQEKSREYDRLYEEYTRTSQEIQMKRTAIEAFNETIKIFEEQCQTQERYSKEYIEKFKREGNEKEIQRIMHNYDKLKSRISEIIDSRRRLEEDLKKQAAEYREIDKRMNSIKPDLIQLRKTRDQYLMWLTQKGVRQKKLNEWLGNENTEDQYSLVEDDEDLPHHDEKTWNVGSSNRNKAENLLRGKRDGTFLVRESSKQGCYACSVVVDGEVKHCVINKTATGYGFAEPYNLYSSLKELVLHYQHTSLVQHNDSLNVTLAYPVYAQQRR
Method: as §1, §2, §3, §4, §5, §6, §7, §8

PI3Kγ = target: T3, PI3Kγ (Homo sapiens, UniProt P48736); test: In vitro kinase activity (LabChip EZ Reader mobility shift), PI3Kγ; type: biochemical; details: kinase subtype PI3Kγ (p110γ)
T3 construct: purchased Invitrogen PR8641C
T3 sequence (P48736 whole entry): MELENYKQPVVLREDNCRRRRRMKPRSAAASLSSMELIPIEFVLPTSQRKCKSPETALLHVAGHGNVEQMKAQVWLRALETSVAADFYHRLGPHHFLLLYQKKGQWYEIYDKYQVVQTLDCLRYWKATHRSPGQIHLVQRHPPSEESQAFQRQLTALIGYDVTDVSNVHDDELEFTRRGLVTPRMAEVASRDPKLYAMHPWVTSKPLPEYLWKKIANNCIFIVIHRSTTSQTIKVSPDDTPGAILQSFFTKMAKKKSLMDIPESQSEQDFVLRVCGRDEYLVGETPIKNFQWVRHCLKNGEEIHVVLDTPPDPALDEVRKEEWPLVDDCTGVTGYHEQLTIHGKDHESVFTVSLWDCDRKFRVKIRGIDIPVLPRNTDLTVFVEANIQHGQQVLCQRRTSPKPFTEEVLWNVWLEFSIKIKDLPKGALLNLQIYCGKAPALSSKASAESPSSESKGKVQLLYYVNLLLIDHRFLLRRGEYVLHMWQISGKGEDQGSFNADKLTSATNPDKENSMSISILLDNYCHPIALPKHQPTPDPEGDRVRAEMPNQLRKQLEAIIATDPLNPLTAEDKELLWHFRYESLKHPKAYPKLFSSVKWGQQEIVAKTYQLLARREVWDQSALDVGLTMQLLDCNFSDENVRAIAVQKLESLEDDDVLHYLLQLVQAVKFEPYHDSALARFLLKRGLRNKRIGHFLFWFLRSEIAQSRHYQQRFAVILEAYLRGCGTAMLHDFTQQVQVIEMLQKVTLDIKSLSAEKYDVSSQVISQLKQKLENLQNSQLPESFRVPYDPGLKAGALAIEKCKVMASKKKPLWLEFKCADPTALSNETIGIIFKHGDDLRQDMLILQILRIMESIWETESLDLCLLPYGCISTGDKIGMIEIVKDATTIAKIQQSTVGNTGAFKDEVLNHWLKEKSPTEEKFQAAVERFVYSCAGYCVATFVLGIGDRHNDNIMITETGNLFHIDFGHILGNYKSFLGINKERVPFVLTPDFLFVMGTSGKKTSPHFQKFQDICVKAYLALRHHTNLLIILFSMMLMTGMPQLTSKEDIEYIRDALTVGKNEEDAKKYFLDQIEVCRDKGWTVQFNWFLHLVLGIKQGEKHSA
Method: as §1, §2, §3, §4, §5, §6, §7, §8

SU-DHL-5 lymphoma cells = test: In vitro cell activity, CellTiter-Glo cell viability, SU-DHL-5; type: cell-based; details: Homo sapiens, SU-DHL-5 lymphoma cell line, 72 h
Method: Compounds: the compounds prepared in above examples of the present invention, each of which was prepared to a concentration of 10 mM in DMSO and diluted 3 times to 20000.00 nM, 6666.67 nM, 2222.22 nM, 740.74 nM, 246.91 nM, 27.43 nM, 9.14 nM, 3.05 nM successively.
The lymphoma cell lines SU-DHL-5 and SU-DHL-6 were purchased from the American Type Culture Collection (ATCC).
Reagents: PRMI-1640, purchased from Invitrogen (USA); FBS, purchased from Invitrogen (USA); EDTA, purchased from Sigma (USA); CellTiter-Glo® Luminescent Cell Viability Assay Kit, purchased from Progema (USA); Backseal membrane, purchased from Perkin Elmer (USA).
The cells were thawed in a 37° C. water bath and then transferred to 15 ml preheated medium. The cells were centrifuged at 1000 rpm for 5 min and the medium was discarded. The cells were resuspended in 15 ml fresh medium and transferred to T75 culture flask and incubated in an incubator at 37° C. with 5% CO2. The medium was replaced with fresh medium 24 h later.
The resuscitated cells above were transferred to a 50 ml sterile centrifuge tube and centrifuged at 1000 rpm for 5 min. The medium was discarded, and the cells were dispersed uniformly and counted. The appropriate cell concentration was adjusted in 15 ml fresh medium and added to T75 culture flask. The flask was incubated in an incubator at 37° C. with 5% CO2.
When the cells in the T75 culture flask grew to 1×10^5˜1×10^6 cells/ml, the cells were resuspended with fresh medium (RPMI-1640+20% FBS) and counted. The resuspended cells were adjusted to the following eight concentrations: 1×10^4 cells/ml, 2×10^4 cells/ml, 3×10^4 cells/ml, 5×10^4 cells/ml, 8×10^4 cells/ml, 1×10^5 cells/ml, 1.5×10^5 cells/ml, and 2×10^5 cells/ml. The above cell suspensions were added to 96-well cell culture plate, 100 μl each well (1×10^3 cells/ml, 2×10^3 cells/ml, 3×10^3 cells/ml, 5×10^3 cells/ml, 8×10^3 cells/ml, 1×10^4 cells/ml, 1.5×10^4 cells/ml, and 2×10^4 cells/ml, respectively). Each concentration was done double in three plates. 72 h later, 100 μl CellTiter-Glo® Luminescent Cell Viability Assay buffer was added to test wells and shaken gently. 10 min later, the Assay plate was attached at the bottom by Backseal membrane and placed on Envison to detect the fluorescence reading. Cell survive (%) was calculated according to the formula: cell survive (%)=(Com−Min)/(Max−Min), wherein Max was the reading of solvent control group, Min was the reading of control group without cells, and Com was the reading of compound treatment group.

PI3Kβ = target: T4, PI3Kβ (Homo sapiens, UniProt P42338); test: In vitro kinase activity (LabChip EZ Reader mobility shift), PI3Kβ; type: biochemical; details: kinase subtype PI3Kβ (p110β)
T4 construct: purchased Millipore 14-603-K
T4 sequence (P42338 whole entry): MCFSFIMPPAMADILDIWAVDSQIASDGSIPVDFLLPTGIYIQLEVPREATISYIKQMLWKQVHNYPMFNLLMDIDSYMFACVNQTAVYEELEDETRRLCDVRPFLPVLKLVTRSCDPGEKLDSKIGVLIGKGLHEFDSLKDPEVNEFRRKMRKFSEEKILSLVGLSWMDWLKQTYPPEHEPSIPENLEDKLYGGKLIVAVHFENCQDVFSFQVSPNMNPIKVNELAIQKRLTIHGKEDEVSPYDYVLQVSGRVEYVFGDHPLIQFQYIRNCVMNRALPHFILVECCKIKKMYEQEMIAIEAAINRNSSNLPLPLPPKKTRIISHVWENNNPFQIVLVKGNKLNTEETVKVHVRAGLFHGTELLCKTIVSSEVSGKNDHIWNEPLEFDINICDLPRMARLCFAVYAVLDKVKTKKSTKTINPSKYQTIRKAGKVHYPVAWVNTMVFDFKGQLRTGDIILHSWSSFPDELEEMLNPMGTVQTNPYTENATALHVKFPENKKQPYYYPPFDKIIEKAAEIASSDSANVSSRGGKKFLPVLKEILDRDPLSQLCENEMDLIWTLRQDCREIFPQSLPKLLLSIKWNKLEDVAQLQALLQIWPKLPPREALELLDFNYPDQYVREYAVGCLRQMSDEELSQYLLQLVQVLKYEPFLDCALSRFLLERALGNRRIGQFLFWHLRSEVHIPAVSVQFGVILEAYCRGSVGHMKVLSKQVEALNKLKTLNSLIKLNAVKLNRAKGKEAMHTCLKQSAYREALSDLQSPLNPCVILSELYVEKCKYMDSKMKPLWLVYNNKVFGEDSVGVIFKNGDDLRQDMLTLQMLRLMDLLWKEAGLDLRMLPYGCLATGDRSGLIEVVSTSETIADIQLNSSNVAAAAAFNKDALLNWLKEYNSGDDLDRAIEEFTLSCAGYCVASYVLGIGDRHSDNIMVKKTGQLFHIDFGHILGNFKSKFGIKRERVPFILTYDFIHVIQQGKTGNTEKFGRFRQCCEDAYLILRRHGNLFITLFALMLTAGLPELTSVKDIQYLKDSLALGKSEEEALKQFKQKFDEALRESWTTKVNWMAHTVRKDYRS
T4 sequence (P27986 whole entry partner): as the sequence (P27986 whole entry partner) above
Method: as §1, §2, §3, §4, §5, §6, §7, §8

T1 sequence (O00329 whole entry): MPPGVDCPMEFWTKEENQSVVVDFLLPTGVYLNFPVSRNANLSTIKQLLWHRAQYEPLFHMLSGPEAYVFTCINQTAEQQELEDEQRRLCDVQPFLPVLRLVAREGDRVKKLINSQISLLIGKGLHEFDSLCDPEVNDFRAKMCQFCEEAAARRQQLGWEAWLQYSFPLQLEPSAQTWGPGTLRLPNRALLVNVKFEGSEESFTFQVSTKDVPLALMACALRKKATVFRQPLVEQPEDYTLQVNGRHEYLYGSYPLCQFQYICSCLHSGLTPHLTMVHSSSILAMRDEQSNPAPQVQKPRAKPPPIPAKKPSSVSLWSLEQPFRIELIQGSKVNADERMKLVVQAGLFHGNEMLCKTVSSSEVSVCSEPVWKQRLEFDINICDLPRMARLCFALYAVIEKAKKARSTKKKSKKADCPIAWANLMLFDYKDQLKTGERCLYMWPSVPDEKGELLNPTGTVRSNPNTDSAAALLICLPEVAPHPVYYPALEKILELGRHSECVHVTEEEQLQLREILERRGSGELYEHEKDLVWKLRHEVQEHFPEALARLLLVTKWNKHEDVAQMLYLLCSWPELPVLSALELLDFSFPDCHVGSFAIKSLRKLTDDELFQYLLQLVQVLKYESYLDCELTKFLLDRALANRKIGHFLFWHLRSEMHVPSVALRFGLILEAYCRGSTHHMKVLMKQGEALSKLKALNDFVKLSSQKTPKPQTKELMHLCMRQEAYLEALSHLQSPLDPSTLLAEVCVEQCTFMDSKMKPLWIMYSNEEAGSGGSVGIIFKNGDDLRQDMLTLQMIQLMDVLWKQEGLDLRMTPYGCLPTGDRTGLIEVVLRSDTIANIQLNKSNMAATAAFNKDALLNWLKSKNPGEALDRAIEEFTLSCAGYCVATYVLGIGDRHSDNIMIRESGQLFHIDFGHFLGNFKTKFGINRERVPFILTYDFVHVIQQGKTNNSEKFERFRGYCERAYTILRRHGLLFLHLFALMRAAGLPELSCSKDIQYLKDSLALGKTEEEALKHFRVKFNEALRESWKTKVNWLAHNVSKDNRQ
T1 sequence (P27986 whole entry partner): as the sequence (P27986 whole entry partner) above

SMILES	selectivity (PI3Kδ over the other PI3K subtypes), in words (PI3Kδ; PI3Kδ versus PI3Kα, PI3Kβ, PI3Kγ)	IC50 (PI3Kδ) [nM]	IC50 (PI3Kα) [nM]	IC50 (PI3Kγ) [nM]	IC50 (SU-DHL-5 lymphoma cells) [µM]	IC50 (PI3Kβ) [nM]
CC(Nc1ncnc(N)c1C#N)c1c(-c2cc(F)cc(F)c2)c(=O)c2cc(F)ccc2n1C (stereo not shown) [Comparative Example 1, 4-Amino-5-cyano-6-(1-(3-(3,5-difluorophenyl)-6-fluoro-1-methyl-4-oxo-1,4-dihydroquinoline-2-yl)ethylamino)pyrimidine, reference compound]	poor	20				
N#Cc1c(N)nc(N)nc1NCc1c(-c2ccccc2)oc2ccccc2c1=O [Example 2, 2,4-Diamino-5-cyano-6-(4-oxo-2-phenyl-4H-chromen-3-yl) methylaminopyrimidine]		13.5				
CC(Nc1ncnc(N)c1C#N)c1c(-c2ccccc2)oc2ccccc2c1=O (stereo not shown) [Example 3, 4-Amino-5-cyano-6-(1-(4-oxo-2-phenyl-4H-chromen-3-yl)ethylamino) pyrimidine]		17	> 1000	> 1000	0.86	> 1000
CC(Nc1ncnc(N)c1C#N)c1c(-c2ccccc2)oc2c(Cl)cccc2c1=O (stereo not shown) [Example 5, 4-Amino-5-cyano-6-(1-(8-chloro-4-oxo-2-phenyl-4H-chromen-3-yl)ethylamino) pyrimidine]		11	> 1000	> 1000	0.61	> 1000
CC(Nc1nc(N)nc(N)c1C#N)c1c(-c2ccccc2)oc2c(Cl)cccc2c1=O (stereo not shown) [Example 6, 2,4-Diamino-5-cyano-6-(1-(8-chloro-4-oxo-2-phenyl-4H-chromen-3-yl)ethylamino)pyrimidine]		9.5	> 1000	84	1.23	881
CC(Nc1nc(N)nc(N)c1C#N)c1c(-c2ccccc2)oc2c(F)cccc2c1=O (stereo not shown) [Example 8, 2,4-Diamino-5-cyano-6-(1-(8-fluoro-4-oxo-2-phenyl-4H-chromen-3-yl)ethylamino) pyrimidine]		6.6	> 1000	134	1.02	385
N#Cc1c(N)ncnc1NCc1c(-c2ccccc2)[nH]c2ccccc2c1=O [Example 15]		21	> 1000	> 1000	4.94	> 1000
CC(Nc1nc(N)nc(N)c1C#N)c1c(-c2ccccc2)[nH]c2ccccc2c1=O (stereo not shown) [Example 22, 2,4-Diamino-5-cyano-6-((1-(4-oxo-2-phenyl-1,4-dihydroquinolin-3-yl)ethyl)amino)pyrimidine]		11	675	60		635

The next compounds have a lower IC50 (PI3Kδ) than those just listed; values first:

selectivity (PI3Kδ over the other PI3K subtypes), in words (PI3Kδ; PI3Kδ versus PI3Kα, PI3Kβ, PI3Kγ)	IC50 (PI3Kδ) [nM]	IC50 (PI3Kα) [nM]	IC50 (PI3Kγ) [nM]	IC50 (SU-DHL-5 lymphoma cells) [µM]	IC50 (PI3Kβ) [nM]	SMILES
	5	> 1000	> 1000	1.43	> 1000	CC(Nc1ncnc(N)c1C#N)c1c(-c2ccccc2)oc2c(F)cccc2c1=O (stereo not shown) [Example 7, 4-Amino-5-cyano-6-(1-(8-fluoro-4-oxo-2-phenyl-4H-chromen-3-yl)ethylamino) pyrimidine]
	3.8	219	66	0.58	139	CC(Nc1ncnc(N)c1C#N)c1c(-c2ccccc2)[nH]c2c(Cl)cccc2c1=O (stereo not shown) [Example 9, 4-Amino-5-cyano-6-((1-(8-chloro-4-oxo-2-phenyl-1,4-dihydroquinolin-3-yl)ethyl)amino)pyrimidine]
	5.8	> 1000	> 1000	1.11	> 1000	CCC(Nc1ncnc(N)c1C#N)c1c(-c2ccccc2)[nH]c2ccccc2c1=O (stereo not shown) [Example 13, 4-Amino-5-cyano-6-((1-(4-oxo-2-phenyl-1,4-dihydroquinolin-3-yl)propyl)amino)pyrimidine]
	2	336	61	3.4	99	N#Cc1c(N)nc(N)nc1NCc1c(-c2ccccc2)[nH]c2c(Cl)cccc2c1=O [Example 18]
	1.4	114	5.7		60	CC(Nc1nc(N)nc(N)c1C#N)c1c(-c2ccccc2)[nH]c2c(Cl)cccc2c1=O (stereo not shown) [Example 23, 2,4-Diamino-5-cyano-6-((1-(8-chloro-4-oxo-2-phenyl-1,4-dihydroquinolin-3-yl)ethyl)amino)pyrimidine]
	1.8	127	21		113	CC(Nc1nc(N)nc(N)c1C#N)c1c(-c2ccccc2)n(C)c2ccccc2c1=O (stereo not shown) [Example 25, 2,4-Diamino-5-cyano-6-((1-(1-methyl-4-oxo-2-phenyl-1,4-dihydroquinolin-3-yl)ethyl)amino) pyrimidine]
	2.3	> 1000	814		972	CC(Nc1ncnc(N)c1C#N)c1c(-c2cccc(F)c2)n(C)c2ccccc2c1=O (stereo not shown) [Example 26, 4-Amino-5-cyano-6-((1-(1-methyl-4-oxo-2-(3-fluorophenyl)-1,4-dihydroquinolin-3-yl)ethyl)amino) pyrimidine]
	1.4	39	11		38	CC(Nc1nc(N)nc(N)c1C#N)c1c(-c2ccccc2)n(C)c2c(Cl)cccc2c1=O (stereo not shown) [Example 27, 2,4-Diamino-5-cyano-6-((1-(8-chloro-1-methyl-4-oxo-2-phenyl-1,4-dihydroquinolin-3-yl)ethyl)amino)pyrimidine]
	3.6	> 1000	155		> 1000	CC(Nc1nc(N)nc(N)c1C#N)c1c(-c2cccc(F)c2)oc2ccccc2c1=O (stereo not shown) [Example 30, 2,4-Diamino-5-cyano-6-(1-(2-(3-fluorophenyl)-4-oxo-4H-chromen-3-yl)ethylamino) pyrimidine]
	4.8	> 1000	673		> 1000	CCC(Nc1nc(N)nc(N)c1C#N)c1c(-c2ccccc2)oc2ccccc2c1=O (stereo not shown) [Example 32, 2,4-Diamino-5-cyano-6-(1-(4-oxo-2-phenyl-4H-chromen-3-yl)propylamino) pyrimidine]
